Experimental data: patent publication US7297700B2, “Bicycloheteroaryl compounds as P2X7 modulators and uses thereof” (Renovis, Inc., priority 2005, dated 2007)

tested on: IL-1β release from THP-1 cells; experiment: IL-1β Release Assay (Alternate Method), THP-1 cells; format: cell-based, human; conditions: at 0.3 μM; THP-1 cells
In short: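 THP-1 cells differentiated 16 h with 100 ng/mL LPS plus 100 ng/mL IFN-γ, reprimed 2 h with 100 ng/mL LPS, pretreated 30 min with compound, then challenged 45 min with 250 uM BzATP (final). Supernatant IL-1β quantified by ELISA; percent inhibition from background-adjusted levels versus untreated cells.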

| Structure (SMILES) | IL-1β % inhibition |
| --- | --- |
| O=C(CC12CC3CC(CC(C3)C1)C2)Nc1ncnc2c1CCN(C(=O)c1ccccc1C(F)(F)F)C2 [Compound 270] | + (compound exhibited 0-25% inhibition at 0.3 μM) |
| O=C(CC12CC3CC(CC(C3)C1)C2)Nc1ncnc2c1CCN(C(=O)c1cc(C(F)(F)F)ccc1Cl)C2 [Compound 271] | ++++ (compound exhibited 75% or greater inhibition at 0.3 μM) |
| O=C(CC12CC3CC(CC(C3)C1)C2)Nc1ncnc2c1CCN(C(=O)c1c(F)cccc1Cl)C2 [Compound 272] | ++++ (compound exhibited 75% or greater inhibition at 0.3 μM) |
| Cc1nn(-c2ccccc2)nc1C(=O)N1CCc2c(ncnc2NC(=O)CC23CC4CC(CC(C4)C2)C3)C1 [Compound 273] | ++++ (compound exhibited 75% or greater inhibition at 0.3 μM) |
| O=C(CC12CC3CC(CC(C3)C1)C2)Nc1ncnc2c1CCN(C(=O)c1cccnc1Oc1ccccc1)C2 [Compound 274] | + (compound exhibited 0-25% inhibition at 0.3 μM) |
| COc1ccc(C(=O)N2CCc3c(ncnc3NC(=O)CC34CC5CC(CC(C5)C3)C4)C2)c(OC)c1 [Compound 275] | +++ (compound exhibited 50-75% inhibition at 0.3 μM) |
| O=C(CC12CC3CC(CC(C3)C1)C2)Nc1ncnc2c1CCN(C(=O)c1ccc(F)cc1F)C2 [Compound 277] | +++ (compound exhibited 50-75% inhibition at 0.3 μM) |
| Cc1ccccc1C(=O)N1CCc2c(ncnc2NC(=O)CC23CC4CC(CC(C4)C2)C3)C1 [Compound 278] | +++ (compound exhibited 50-75% inhibition at 0.3 μM) |
| O=C(CC12CC3CC(CC(C3)C1)C2)Nc1ncnc2c1CCN(C(=O)c1cc(F)ccc1F)C2 [Compound 279] | ++++ (compound exhibited 75% or greater inhibition at 0.3 μM) |
| O=C(CC12CC3CC(CC(C3)C1)C2)Nc1ncnc2c1CCN(C(=O)c1ccccc1F)C2 [Compound 280] | +++ (compound exhibited 50-75% inhibition at 0.3 μM) |
| O=C(CC12CC3CC(CC(C3)C1)C2)Nc1ncnc2c1CCN(C(=O)c1ccc(Cl)nc1)C2 [Compound 281] | + (compound exhibited 0-25% inhibition at 0.3 μM) |
| O=C(CC12CC3CC(CC(C3)C1)C2)Nc1ncnc2c1CCN(C(=O)c1cccc(Cl)c1Cl)C2 [Compound 282] | ++++ (compound exhibited 75% or greater inhibition at 0.3 μM) |
| Cc1cc(C(=O)N2CCc3c(ncnc3NC(=O)CC34CC5CC(CC(C5)C3)C4)C2)no1 [Compound 283] | +++ (compound exhibited 50-75% inhibition at 0.3 μM) |
| Cc1cc(C(=O)N2CCc3c(ncnc3NC(=O)CC34CC5CC(CC(C5)C3)C4)C2)nn1C [Compound 284] | ++ (compound exhibited 25-50% inhibition at 0.3 μM) |
| Cc1cc(C(=O)N2CCc3c(ncnc3NC(=O)CC34CC5CC(CC(C5)C3)C4)C2)n(C)n1 [Compound 285] | + (compound exhibited 0-25% inhibition at 0.3 μM) |
| O=C(CC12CC3CC(CC(C3)C1)C2)Nc1ncnc2c1CCN(C(=O)c1cnn(-c3ccccc3)c1C(F)(F)F)C2 [Compound 286] | +++ (compound exhibited 50-75% inhibition at 0.3 μM) |
| Cc1c(C(=O)N2CCc3c(ncnc3NC(=O)CC34CC5CC(CC(C5)C3)C4)C2)cnn1-c1ccccc1 [Compound 288] | + (compound exhibited 0-25% inhibition at 0.3 μM) |
| O=C(CC12CC3CC(CC(C3)C1)C2)Nc1ncnc2c1CCN(C(=O)c1ccc3ccccc3c1)C2 [Compound 290] | ++++ (compound exhibited 75% or greater inhibition at 0.3 μM) |
| Cc1ccc(C(=O)N2CCc3c(ncnc3NC(=O)CC34CC5CC(CC(C5)C3)C4)C2)cc1 [Compound 291] | ++++ (compound exhibited 75% or greater inhibition at 0.3 μM) |
| COc1ccccc1C(=O)N1CCc2c(ncnc2NC(=O)CC23CC4CC(CC(C4)C2)C3)C1 [Compound 292] | +++ (compound exhibited 50-75% inhibition at 0.3 μM) |
| Cc1cc(C(=O)N2CCc3c(ncnc3NC(=O)CC34CC5CC(CC(C5)C3)C4)C2)c(C)o1 [Compound 293] | +++ (compound exhibited 50-75% inhibition at 0.3 μM) |
| O=C(CC12CC3CC(CC(C3)C1)C2)Nc1ncnc2c1CCN(C(=O)c1ccccc1Cl)C2 [Compound 294] | +++ (compound exhibited 50-75% inhibition at 0.3 μM) |
| CC(=O)N1CCC(C(=O)N2CCc3c(ncnc3NC(=O)CC34CC5CC(CC(C5)C3)C4)C2)CC1 [Compound 295] | + (compound exhibited 0-25% inhibition at 0.3 μM) |
| O=C(CC12CC3CC(CC(C3)C1)C2)Nc1ncnc2c1CCN(C(=O)c1ccno1)C2 [Compound 296] | +++ (compound exhibited 50-75% inhibition at 0.3 μM) |
| Cc1noc(C)c1C(=O)N1CCc2c(ncnc2NC(=O)CC23CC4CC(CC(C4)C2)C3)C1 [Compound 297] | + (compound exhibited 0-25% inhibition at 0.3 μM) |
| O=C(CC12CC3CC(CC(C3)C1)C2)Nc1ncnc2c1CCN(C(=O)c1ccnc(Cl)c1)C2 [Compound 298] | ++++ (compound exhibited 75% or greater inhibition at 0.3 μM) |
| Cc1oncc1C(=O)N1CCc2c(ncnc2NC(=O)CC23CC4CC(CC(C4)C2)C3)C1 [Compound 299] | + (compound exhibited 0-25% inhibition at 0.3 μM) |

| Structure (SMILES) | IL-1β % inhibition |
| --- | --- |
| Cc1cc(C(=O)N2CCc3c(ncnc3NC(=O)CC34CC5CC(CC(C5)C3)C4)C2)n(C(C)(C)C)n1 [Compound 300] | + (compound exhibited 0-25% inhibition at 0.3 μM) |
| CC(C)(C)c1ccc(C(=O)N2CCc3c(ncnc3NC(=O)CC34CC5CC(CC(C5)C3)C4)C2)cc1 [Compound 301] | ++++ (compound exhibited 75% or greater inhibition at 0.3 μM) |
| O=C(CC12CC3CC(CC(C3)C1)C2)Nc1ncnc2c1CCN(C(=O)Cc1ccccc1Br)C2 [Compound 302] | +++ (compound exhibited 50-75% inhibition at 0.3 μM) |
| O=C(CC12CC3CC(CC(C3)C1)C2)Nc1ncnc2c1CCN(C(=O)c1ccc3ccccc3n1)C2 [Compound 303] | +++ (compound exhibited 50-75% inhibition at 0.3 μM) |
| O=C(CC12CC3CC(CC(C3)C1)C2)Nc1ncnc2c1CCN(C(=O)c1ccncc1)C2 [Compound 304] | + (compound exhibited 0-25% inhibition at 0.3 μM) |
| O=C(CC12CC3CC(CC(C3)C1)C2)Nc1ncnc2c1CCN(C(=O)C1CCCN1C(=O)C(F)(F)F)C2 (centres unmarked) [Compound 306] | + (compound exhibited 0-25% inhibition at 0.3 μM) |
| COCCC(=O)N1CCc2c(ncnc2NC(=O)CC23CC4CC(CC(C4)C2)C3)C1 [Compound 307] | ++ (compound exhibited 25-50% inhibition at 0.3 μM) |
| O=C(CC12CC3CC(CC(C3)C1)C2)Nc1ncnc2c1CCN(C(=O)c1ccc3c(c1)CCO3)C2 [Compound 309] | ++++ (compound exhibited 75% or greater inhibition at 0.3 μM) |
| COc1ccc(C(=O)N2CCc3c(ncnc3NC(=O)CC34CC5CC(CC(C5)C3)C4)C2)cc1F [Compound 310] | +++ (compound exhibited 50-75% inhibition at 0.3 μM) |
| COc1ccc(C(=O)N2CCc3c(ncnc3NC(=O)CC34CC5CC(CC(C5)C3)C4)C2)cc1OC [Compound 312] | + (compound exhibited 0-25% inhibition at 0.3 μM) |
| O=C(CC12CC3CC(CC(C3)C1)C2)Nc1ncnc2c1CCN(C(=O)C1COc3ccccc3C1)C2 (centres unmarked) [Compound 313] | ++++ (compound exhibited 75% or greater inhibition at 0.3 μM) |
| O=C(NCC12CC3CC(CC(C3)C1)C2)c1ncnc2c1CCN(Cc1cccc(F)c1)C2 [Compound 316] | + (compound exhibited 0-25% inhibition at 0.3 μM) |
| CC(c1ccc2c(c1)OCCO2)N1CCc2c(ncnc2NC(=O)CC23CC4CC(CC(C4)C2)C3)C1 (centres unmarked) [Compound 317] | + (compound exhibited 0-25% inhibition at 0.3 μM) |
| O=C(CC12CC3CC(CC(C3)C1)C2)Nc1ncnc2c1CCN(Cc1ccc3c(c1)Cc1ccccc1-3)C2 [Compound 318] | + (compound exhibited 0-25% inhibition at 0.3 μM) |
| O=C(CC12CC3CC(CC(C3)C1)C2)Nc1ncnc2c1CCN(Cc1ccc(Cl)cc1Cl)C2 [Compound 319] | + (compound exhibited 0-25% inhibition at 0.3 μM) |
| Cc1ccc(CN2CCc3c(ncnc3NC(=O)CC34CC5CC(CC(C5)C3)C4)C2)c(C)c1 [Compound 320] | + (compound exhibited 0-25% inhibition at 0.3 μM) |
| O=C(CC12CC3CC(CC(C3)C1)C2)Nc1ncnc2c1CCN(Cc1ccc3c(c1)OCO3)C2 [Compound 321] | ++++ (compound exhibited 75% or greater inhibition at 0.3 μM) |
| O=C(CC12CC3CC(CC(C3)C1)C2)Nc1ncnc2c1CCN(Cc1ccc(F)c(F)c1)C2 [Compound 322] | + (compound exhibited 0-25% inhibition at 0.3 μM) |
| O=C(CC12CC3CC(CC(C3)C1)C2)Nc1ncnc2c1CCN(Cc1ccc(F)c(Cl)c1)C2 [Compound 323] | + (compound exhibited 0-25% inhibition at 0.3 μM) |
| COc1ccc(CN2CCc3c(ncnc3NC(=O)CC34CC5CC(CC(C5)C3)C4)C2)cc1Cl [Compound 324] | + (compound exhibited 0-25% inhibition at 0.3 μM) |
| O=C(CC12CC3CC(CC(C3)C1)C2)Nc1ncnc2c1CCN(Cc1ccc(Cl)c(C(F)(F)F)c1)C2 [Compound 325] | + (compound exhibited 0-25% inhibition at 0.3 μM) |
| O=C(CC12CC3CC(CC(C3)C1)C2)Nc1ncnc2c1CCN(Cc1ccc(F)cc1Cl)C2 [Compound 326] | ++ (compound exhibited 25-50% inhibition at 0.3 μM) |
| O=C(CC12CC3CC(CC(C3)C1)C2)Nc1ncnc2c1CCN(Cc1ccc(C(F)(F)F)cc1C(F)(F)F)C2 [Compound 327] | + (compound exhibited 0-25% inhibition at 0.3 μM) |
| O=C(CC12CC3CC(CC(C3)C1)C2)Nc1ncnc2c1CCN(Cc1ccc(Cl)cc1F)C2 [Compound 328] | +++ (compound exhibited 50-75% inhibition at 0.3 μM) |
| O=C(CC12CC3CC(CC(C3)C1)C2)Nc1ncnc2c1CCN(Cc1ccc(Cl)c(F)c1)C2 [Compound 329] | +++ (compound exhibited 50-75% inhibition at 0.3 μM) |
| COc1cc(OCc2ccccc2)ccc1CN1CCc2c(ncnc2NC(=O)CC23CC4CC(CC(C4)C2)C3)C1 [Compound 330] | +++ (compound exhibited 50-75% inhibition at 0.3 μM) |
